Test results reported in ChEMBL document CHEMBL1909046, “DrugMatrix in vitro pharmacology data”.

Experiments:
Cytochrome P450 2C9 = Cytochrome P450 2C9 (Homo sapiens, UniProt P11712); conditions: bti-tn-5b1-4
Cytochrome P450 1A2 = molecular target: T1, Cytochrome P450 1A2 (Homo sapiens, UniProt P05177); conditions: bti-tn-5b1-4
T1 sequence (P05177 whole entry): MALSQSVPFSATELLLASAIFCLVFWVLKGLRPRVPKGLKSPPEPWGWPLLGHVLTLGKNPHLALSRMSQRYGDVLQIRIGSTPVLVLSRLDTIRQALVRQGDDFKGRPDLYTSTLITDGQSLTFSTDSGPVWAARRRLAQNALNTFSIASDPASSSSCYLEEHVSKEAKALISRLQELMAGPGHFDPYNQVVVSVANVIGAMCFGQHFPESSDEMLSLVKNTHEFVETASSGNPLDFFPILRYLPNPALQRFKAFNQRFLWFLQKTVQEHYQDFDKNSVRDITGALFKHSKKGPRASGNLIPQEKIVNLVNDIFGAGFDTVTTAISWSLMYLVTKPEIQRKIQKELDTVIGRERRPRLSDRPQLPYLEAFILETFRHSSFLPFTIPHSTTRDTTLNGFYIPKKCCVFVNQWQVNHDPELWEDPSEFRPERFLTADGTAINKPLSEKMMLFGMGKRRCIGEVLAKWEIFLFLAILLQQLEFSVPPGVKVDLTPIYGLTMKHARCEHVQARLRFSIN

Cytochrome P450 2C19 = Cytochrome P450 2C19 (Homo sapiens, UniProt P33261); conditions: bti-tn-5b1-4
Cytochrome P450 2C19, sequence (P33261 whole entry): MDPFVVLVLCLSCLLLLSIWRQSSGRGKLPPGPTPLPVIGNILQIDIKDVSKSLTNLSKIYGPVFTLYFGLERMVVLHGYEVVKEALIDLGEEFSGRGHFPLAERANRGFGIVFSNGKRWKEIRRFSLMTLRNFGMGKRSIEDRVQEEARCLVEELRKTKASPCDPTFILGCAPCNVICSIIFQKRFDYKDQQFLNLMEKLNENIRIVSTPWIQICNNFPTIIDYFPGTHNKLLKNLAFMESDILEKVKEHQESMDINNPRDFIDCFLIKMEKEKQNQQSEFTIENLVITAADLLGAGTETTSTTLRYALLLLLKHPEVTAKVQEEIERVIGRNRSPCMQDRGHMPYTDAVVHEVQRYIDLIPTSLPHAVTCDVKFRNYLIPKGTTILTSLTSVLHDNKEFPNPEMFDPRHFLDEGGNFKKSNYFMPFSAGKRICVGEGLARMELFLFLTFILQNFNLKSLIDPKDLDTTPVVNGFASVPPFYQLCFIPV

Cytochrome P450 2D6 = Cytochrome P450 2D6 (Homo sapiens, UniProt P10635); conditions: bti-tn-5b1-4
Cytochrome P450 2D6, sequence (P10635 whole entry): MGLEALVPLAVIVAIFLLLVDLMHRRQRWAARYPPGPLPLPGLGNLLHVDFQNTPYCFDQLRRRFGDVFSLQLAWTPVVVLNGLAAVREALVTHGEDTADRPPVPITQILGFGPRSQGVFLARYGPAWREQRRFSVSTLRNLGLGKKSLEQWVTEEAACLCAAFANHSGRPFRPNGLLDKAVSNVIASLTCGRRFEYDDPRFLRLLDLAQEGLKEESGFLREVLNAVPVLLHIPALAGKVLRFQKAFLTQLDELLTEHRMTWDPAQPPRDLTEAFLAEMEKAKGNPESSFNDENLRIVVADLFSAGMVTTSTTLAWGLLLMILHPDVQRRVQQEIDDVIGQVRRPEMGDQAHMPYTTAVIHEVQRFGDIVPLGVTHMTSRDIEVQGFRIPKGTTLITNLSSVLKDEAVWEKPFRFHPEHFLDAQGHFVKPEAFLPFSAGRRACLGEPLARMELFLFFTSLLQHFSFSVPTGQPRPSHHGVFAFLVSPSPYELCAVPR

Cytochrome P450 2A6 = molecular target: T2, Cytochrome P450 2A6 (Homo sapiens, UniProt P11509); conditions: bti-tn-5b1-4
T2 sequence (P11509 whole entry): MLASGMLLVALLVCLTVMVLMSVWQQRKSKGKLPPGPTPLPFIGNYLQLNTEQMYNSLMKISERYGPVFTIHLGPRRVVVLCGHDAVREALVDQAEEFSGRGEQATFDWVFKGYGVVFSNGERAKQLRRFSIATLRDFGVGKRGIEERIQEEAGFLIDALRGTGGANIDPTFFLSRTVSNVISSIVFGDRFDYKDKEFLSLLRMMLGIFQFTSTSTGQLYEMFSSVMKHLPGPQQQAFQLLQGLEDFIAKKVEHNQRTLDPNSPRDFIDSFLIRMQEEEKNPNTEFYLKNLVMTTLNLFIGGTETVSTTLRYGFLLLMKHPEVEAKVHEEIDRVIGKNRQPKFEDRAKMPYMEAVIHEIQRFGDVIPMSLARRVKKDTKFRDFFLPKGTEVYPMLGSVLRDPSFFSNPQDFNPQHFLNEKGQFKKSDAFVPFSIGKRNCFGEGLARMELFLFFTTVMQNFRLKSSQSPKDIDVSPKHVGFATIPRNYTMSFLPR

Cytochrome P450 2E1 = Cytochrome P450 2E1 (Homo sapiens, UniProt P05181); conditions: bti-tn-5b1-4
Cytochrome P450 2E1, sequence (P05181 whole entry): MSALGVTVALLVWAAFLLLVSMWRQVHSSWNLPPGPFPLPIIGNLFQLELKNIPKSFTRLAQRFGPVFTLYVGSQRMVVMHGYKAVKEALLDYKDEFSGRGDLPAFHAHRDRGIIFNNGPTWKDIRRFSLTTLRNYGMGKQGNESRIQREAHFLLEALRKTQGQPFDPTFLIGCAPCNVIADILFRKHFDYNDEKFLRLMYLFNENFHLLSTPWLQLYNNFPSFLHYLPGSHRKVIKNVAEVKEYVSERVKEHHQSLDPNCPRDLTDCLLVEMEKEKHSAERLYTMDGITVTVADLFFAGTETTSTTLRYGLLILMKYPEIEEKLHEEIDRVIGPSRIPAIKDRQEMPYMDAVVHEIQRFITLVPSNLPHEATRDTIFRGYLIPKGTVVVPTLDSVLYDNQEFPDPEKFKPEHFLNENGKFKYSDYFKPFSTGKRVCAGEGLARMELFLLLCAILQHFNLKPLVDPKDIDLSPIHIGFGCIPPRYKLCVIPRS

Cytochrome P450 3A4 = Cytochrome P450 3A4 (Homo sapiens, UniProt P08684); conditions: bti-tn-5b1-4
Cytochrome P450 3A4, sequence (P08684 whole entry): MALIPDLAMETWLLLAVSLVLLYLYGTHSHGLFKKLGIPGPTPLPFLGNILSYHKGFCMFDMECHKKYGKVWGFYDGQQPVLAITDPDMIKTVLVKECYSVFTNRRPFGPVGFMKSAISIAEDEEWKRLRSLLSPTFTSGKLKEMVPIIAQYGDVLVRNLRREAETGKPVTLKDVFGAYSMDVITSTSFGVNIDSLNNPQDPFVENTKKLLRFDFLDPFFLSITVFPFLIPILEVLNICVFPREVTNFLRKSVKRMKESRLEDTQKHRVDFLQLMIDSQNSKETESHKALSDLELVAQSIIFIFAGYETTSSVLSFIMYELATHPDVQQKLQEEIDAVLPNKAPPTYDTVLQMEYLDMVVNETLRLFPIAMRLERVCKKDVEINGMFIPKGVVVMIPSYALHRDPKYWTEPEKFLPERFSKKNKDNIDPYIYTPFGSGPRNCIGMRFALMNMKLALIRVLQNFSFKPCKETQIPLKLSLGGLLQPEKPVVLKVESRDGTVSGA

[1] = molecular target: Voltage-gated inwardly rectifying potassium channel KCNH2 (Homo sapiens, UniProt Q12809); conditions: hek293
Voltage-gated inwardly rectifying potassium channel KCNH2, sequence (Q12809 whole entry): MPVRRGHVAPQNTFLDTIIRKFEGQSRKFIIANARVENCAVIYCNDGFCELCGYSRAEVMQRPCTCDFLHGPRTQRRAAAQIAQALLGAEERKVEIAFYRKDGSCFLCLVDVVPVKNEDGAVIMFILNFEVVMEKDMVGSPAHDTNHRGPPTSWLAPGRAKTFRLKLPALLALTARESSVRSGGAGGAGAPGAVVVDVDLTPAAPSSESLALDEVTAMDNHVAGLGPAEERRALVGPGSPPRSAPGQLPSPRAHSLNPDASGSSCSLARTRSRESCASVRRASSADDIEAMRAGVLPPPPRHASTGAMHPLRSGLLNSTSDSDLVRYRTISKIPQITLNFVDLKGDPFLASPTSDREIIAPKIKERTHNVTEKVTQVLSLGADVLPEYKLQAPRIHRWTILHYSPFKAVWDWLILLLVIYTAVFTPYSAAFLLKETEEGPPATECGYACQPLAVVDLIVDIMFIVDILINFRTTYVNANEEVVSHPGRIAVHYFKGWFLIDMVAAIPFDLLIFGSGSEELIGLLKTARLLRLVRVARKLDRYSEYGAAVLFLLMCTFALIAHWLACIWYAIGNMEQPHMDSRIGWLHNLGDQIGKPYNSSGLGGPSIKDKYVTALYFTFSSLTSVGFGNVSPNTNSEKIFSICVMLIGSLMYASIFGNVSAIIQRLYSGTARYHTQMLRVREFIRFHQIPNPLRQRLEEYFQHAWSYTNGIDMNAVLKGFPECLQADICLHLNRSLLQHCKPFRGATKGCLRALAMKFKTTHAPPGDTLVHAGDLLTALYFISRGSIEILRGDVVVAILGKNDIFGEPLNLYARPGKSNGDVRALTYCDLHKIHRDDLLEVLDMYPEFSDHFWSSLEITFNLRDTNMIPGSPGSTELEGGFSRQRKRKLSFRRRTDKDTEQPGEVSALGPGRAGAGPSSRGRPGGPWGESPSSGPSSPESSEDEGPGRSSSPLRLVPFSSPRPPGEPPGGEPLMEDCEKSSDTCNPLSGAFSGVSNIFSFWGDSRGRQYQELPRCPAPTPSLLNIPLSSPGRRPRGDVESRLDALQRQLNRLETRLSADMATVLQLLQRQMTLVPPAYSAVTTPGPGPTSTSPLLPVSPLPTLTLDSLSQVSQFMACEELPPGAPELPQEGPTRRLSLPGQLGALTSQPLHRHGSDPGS
Further: in other assays of this panel Not Active means under 50% inhibition at 10 µM.

Cytochrome P450 2C9, sequence (P11712 whole entry): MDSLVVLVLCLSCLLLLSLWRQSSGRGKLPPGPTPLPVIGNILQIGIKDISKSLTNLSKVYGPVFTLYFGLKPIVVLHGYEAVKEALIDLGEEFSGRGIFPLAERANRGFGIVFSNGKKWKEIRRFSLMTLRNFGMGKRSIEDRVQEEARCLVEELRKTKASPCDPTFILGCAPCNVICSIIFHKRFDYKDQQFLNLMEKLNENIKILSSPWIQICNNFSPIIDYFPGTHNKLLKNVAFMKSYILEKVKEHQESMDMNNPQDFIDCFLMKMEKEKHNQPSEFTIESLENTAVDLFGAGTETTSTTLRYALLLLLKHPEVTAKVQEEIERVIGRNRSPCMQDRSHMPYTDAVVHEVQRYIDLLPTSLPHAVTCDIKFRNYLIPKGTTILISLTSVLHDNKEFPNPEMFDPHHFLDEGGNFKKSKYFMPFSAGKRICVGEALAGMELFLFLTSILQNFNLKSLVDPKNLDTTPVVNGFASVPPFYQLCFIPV

CC=Cc1ccc(O)c(OC)c1 [ISOEUGENOL]
Not Active: IC50 (Cytochrome P450 2C9) | Ki (Cytochrome P450 2C9) | IC50 (Cytochrome P450 1A2) | Ki (Cytochrome P450 1A2) | IC50 (Cytochrome P450 2C19) | Ki (Cytochrome P450 2C19) | IC50 (Cytochrome P450 2D6) | Ki (Cytochrome P450 2D6) | IC50 (Cytochrome P450 2A6) | Ki (Cytochrome P450 2A6) | IC50 (Cytochrome P450 2E1) | Ki (Cytochrome P450 2E1) | IC50 (Cytochrome P450 3A4) | Ki (Cytochrome P450 3A4) | IC50 [1] | Ki [1]
